Reference: PMC9916441, “Resveratrol Derivative Exhibits Marked Antiproliferative Actions, Affecting Stemness in Pancreatic Cancer Cells” (International Journal of Molecular Sciences, 2023)

Experiments:
BxPC-3 [1] = experiment: Colony formation assay; type: cell-based, human; conditions: BxPC-3, 20 µM, 72 h treatment
Procedure: (§1) A colony formation assay was performed as previously described. Briefly, the PC cells were seeded in 6-well plates, incubated for 24 h, and then treated for 72 h with 20 μM DF5, DF12, and RSV or with vehicle (DMSO) as indicated. After 4 days, following methanol fixation and crystal violet staining, the colonies of at least 30 cells were counted.

AsPC-1 [2] = experiment: Colony formation assay; type: cell-based, human; conditions: AsPC-1, 20 µM, 72 h treatment
Procedure: as §1

Capan-2 [3] = experiment: Colony formation assay; type: cell-based, human; conditions: Capan-2, 20 µM, 72 h treatment
Procedure: as §1

BxPC-3 [4] = experiment: MTT cell viability assay; type: cell-based, human; conditions: for IC50: Homo sapiens, BxPC-3, MTT, 72 h
Procedure: (§2) The cell viability was assessed using MTT assay, as previously described. Briefly, the cells were seeded in 96-well plates (4 × 10^3 cells/well) and were treated for 72 h with different concentrations of RSV, DF5, and DF12. The IC50 values were extrapolated from dose–response curves and calculated using the CompuSyn software (https://www.combosyn.com/). The selectivity index (SI) values were calculated as ratios between the IC50 values of compounds in normal HFF-1 fibroblast cells and the IC50 values of the same compounds in the PC cell lines.

AsPC-1 [5] = experiment: MTT cell viability assay; type: cell-based, human; conditions: for IC50: Homo sapiens, ASPC1, AsPC-1, MTT, 72 h
Procedure: as §2

Capan-2 [6] = experiment: MTT cell viability assay; type: cell-based, human; conditions: for IC50 / viability at 50 µM: Homo sapiens, Capan-2, MTT; for IC50: 72 h; for viability at 50 µM: plateau reached already at 50 µM, read-out: residual viability
Procedure: as §2

[7] = test system: AsPC-1, BxPC-3 and Capan-2 PC cell lines; experiment: Cell growth, trypan blue exclusion test; type: cell-based, human; conditions: 50 μM, counted at 24, 48 and 72 h, three PC cell lines, vs control
Procedure: The cell counting was performed using the trypan blue exclusion test. Briefly, PC cells were seeded in 24-well plates (5 × 10^4 cells/well) and then were treated with 50 μM of DF5, RSV, or with vehicle and counted at 24, 48, and 72 h.

BxPC-3 [8] = experiment: Apoptosis assay, annexin-V staining by flow cytometry; type: cell-based, human; conditions: 24 h
Procedure: (§3) The apoptosis assay was performed essentially as previously described. the analyses were performed using a CytoFLEX flow cytometer, using the FL1 detector in linear mode and the CytoExpert software (Beckmann Coulter, Milano, Italy).

AsPC-1 [9] = experiment: as above; type: cell-based, human; conditions: 24 h
Procedure: as §3

Capan-2 [10] = experiment: as above; type: cell-based, human; conditions: 24 h
Procedure: as §3

[11] = test system: poly-(ADP-ribose) polymerase (PARP); experiment: Western blot of PARP cleavage in PC cell lines; type: cell-based, human; conditions: vs untreated cells
Procedure: (§4) The PC cell lines treated with 50 μM DF5, RSV, or with vehicle (DMSO) were lysed in a cell lysis buffer containing PMSF, protease inhibitors cocktails, and phosphatase inhibitors. The protein lysate quantification and immunoblot analyses were performed as previously described.

[12] = set-up: method as in PMID 25224342; conditions: based on solubility of ref 43; cited from earlier work
p-SER^139H2AX = experiment: Western blot of phospho-H2AX (γH2AX) in PC cell lines; type: cell-based, human
Procedure: as §4

BxPC-3 [13] = experiment: Flow cytometry immunophenotyping of CD133+EpCAM+ cancer stem-like subpopulation; type: cell-based, human; conditions: BxPC-3, 20 μM, 72 h
Procedure: (§5) The expression of CD133 and EpCAM surface antigens was evaluated using flow cytometry. Briefly, the PC cells were seeded in 6-well plates and treated for 72 h with 20 μM DF5, RSV, or with vehicle (DMSO). After treatment, the cells were collected in PBS and stained at room temperature in the dark for 30 min with PE-CD133, FITC-EpCAM antibodies, and Reactive Dye. After labeling, the samples were washed in PBS by centrifugation at 1500 rpm for 10 min, to remove excess antibodies. Flow cytometer performance, stability, and data reproducibility were daily checked by using the CS&T quality control Module (BD Biosciences). The gating strategy and the evaluation of non-specific fluorescence was determined using fluorescence minus one (FMO) controls. The data were acquired with FACSVerse analyzer equipped with a volumetric count module (BD Biosciences, San Jose, CA, USA) and are expressed as the percentage of positive cells.

AsPC-1 [14] = experiment: as above; type: cell-based, human; conditions: AsPC-1, 20 μM, 72 h
Procedure: as §5

Capan-2 [15] = experiment: as above; type: cell-based, human; conditions: Capan-2, 20 μM, 72 h
Procedure: as §5

[16] = test system: normal HFF-1 fibroblast cells; experiment: MTT cell viability assay on normal fibroblasts; type: cell-based, human; conditions: 72 h
Procedure: as §2

cyclin B1/CDK1 complex = experiment: Western blot of cyclin B1, Cdc2/Cdk1 and p-Cdc2 (Thr161) in PC cell lines; type: cell-based, human; conditions: 50 μM, BxPC-3
Procedure: as §4

Cyclin D3 = experiment: Western blot of cyclin D3 in PC cell lines; type: cell-based, human; conditions: 50 μM
Procedure: as §4

[17] = test system: AsPC-1, BxPC-3 and Capan-2 PC cell lines; experiment: Cell cycle analysis by flow cytometry; type: cell-based, human; conditions: 50 μM, 24 h
Procedure: To perform the cell cycle analysis, the PC cells (3 × 10^5) were collected, fixed in 70% cold ethanol, and kept at 4 °C overnight. The collected cells were incubated at 4 °C overnight in 5 μg/mL PI (final concentration) and 100 μg/mL RNAse (final concentration). The cell cycle profiles were analyzed as previously described.

## Oc1ccc(/C=C/c2ccc3ccccc3c2)cc1 [DF12]
BxPC-3 [1]
  effect on clonogenicity (colony formation): relevant effects on clonogenic capacity
AsPC-1 [2]
  effect on clonogenicity (colony formation): relevant effects on clonogenic capacity
Capan-2 [3]
  effect on clonogenicity (colony formation): marginal effects
BxPC-3 [4]
  IC50: 18.3 µM
AsPC-1 [5]
  IC50: 11.1 µM
Capan-2 [6]
  IC50: 58.1 µM
  viability at 50 µM: > 50%

## Oc1ccc(/C=C/c2cc(O)cc(O)c2)cc1 [RSV, 3,5,4′-trihydroxy-trans-stilbene, reference compound]
BxPC-3 [1]
  effect on clonogenicity (colony formation): significantly, but modestly, affected clonogenic activity
AsPC-1 [2]
  effect on clonogenicity (colony formation): significantly, but modestly, affected clonogenic activity
Capan-2 [3]
  effect on clonogenicity (colony formation): significantly, but modestly, affected clonogenic activity
[7]
  effect on cell growth (cell number): significantly, drastically, and comparably affected cell growth
BxPC-3 [8]; BxPC-3, 20 μM
  apoptosis induction (Annexin V+ cells): neither compound affected apoptosis
BxPC-3 [8]; BxPC-3, 50 μM
  apoptosis induction (Annexin V+ cells): significant but less marked increment of apoptotic cells
AsPC-1 [9]; AsPC-1, 20 μM
  apoptosis induction (Annexin V+ cells): statistically significant apoptosis
AsPC-1 [9]; AsPC-1, 50 μM
  apoptosis induction (Annexin V+ cells): significant but less marked increment of apoptotic cells
Capan-2 [10]; Capan-2, 20 μM
  apoptosis induction (Annexin V+ cells): statistically significant apoptosis
Capan-2 [10]; Capan-2, 50 μM
  apoptosis induction (Annexin V+ cells): significant but less marked increment of apoptotic cells
[11]; AsPC-1, 50 μM
  effect on cleaved:uncleaved PARP ratio: affected the PARP cleavage ratio
[11]; BxPC-3, 50 μM
  effect on cleaved:uncleaved PARP ratio: small
[11]; Capan-2, 50 μM
  effect on cleaved:uncleaved PARP ratio: negligible
[12]
  Classification (water solubility): PI (PI (Practically Insoluble))
p-SER^139H2AX; AsPC-1, 50 μM
  activation (phosphorylation) of H2AX: increased H2AX phosphorylation
p-SER^139H2AX; BxPC-3, 50 μM
  activation (phosphorylation) of H2AX: to a lesser extent
p-SER^139H2AX; Capan-2, 50 μM
  activation (phosphorylation) of H2AX: no activation of H2AX
BxPC-3 [13]
  effect on percentage of CD133+EpCAM+ cancer stem-like subpopulation: more marked effect
AsPC-1 [14]
  effect on percentage of CD133+EpCAM+ cancer stem-like subpopulation: did not affect this subpopulation
Capan-2 [15]
  effect on percentage of CD133+EpCAM+ cancer stem-like subpopulation: did not affect this subpopulation
[16]; up to 100 μM
  toxicity against normal HFF-1 fibroblast cells: negligible toxicity
[16]; Homo sapiens, normal HFF-1 fibroblasts, 100 μM highest concentration used
  IC50: > 100 µM
Cyclin B1/CDK1 complex
  effect on expression of the cyclin B1/CDK1 complex: much less evident
Cyclin D3
  effect on cyclin D3 expression: present but less marked
[17]; across the three PC cell lines, vs untreated cells
  effect on cells in G0/G1 phase: statistically significant accumulation of cells at the G0/G1 phase
[17]; three PC cell lines, in Capan-2 it did not reach statistical significance
  effect on cells in G2/M phase: drastic depletion of cells in the G2/M phase
BxPC-3 [4]
  IC50: 48.7 µM
BxPC-3 [4]; SI = IC50 on normal HFF-1 fibroblast cells/IC50 on BxPC-3
  Selectivity Index (SI) BxPC-3: > 2.05
AsPC-1 [5]
  IC50: 29 µM
AsPC-1 [5]; SI = IC50 on normal HFF-1 fibroblast cells/IC50 on AsPC-1
  Selectivity Index (SI) AsPC-1: > 3.45
Capan-2 [6]
  IC50: > 100 µM
  viability at 50 µM: > 50%
Capan-2 [6]; SI = IC50 on normal HFF-1 fibroblast cells/IC50 on Capan-2
  Selectivity Index (SI) Capan-2: > 1.00
